The values below come from US9593146B2, “CD44v6-derived peptides for treating metastasizing cancer” (AMCURE GMBH, priority 2012, dated 2017).

The test system of one experiment is L3.6pl cells. Description: Regression of established metastases, L3.6pl orthotopic mouse model. The conditions noted are these: treatment started three weeks after implantation; human v6 peptide or rat control peptide 20 μg i.p. It counts as in vivo, nude mice. On the procedure: In order to examine the regression of metastases (either BSp73ASs6 or L3.6pl) were implanted as described above. Tumor growth was allowed for three weeks. At that time all animals had developed metastases in the control group. Animals were injected i.p. with 20 μg (L3.6pl orthotopic mouse model: human v6 peptide or rat control peptide) or i.v. with 200 μg (rat syngeneic model: rat v6 peptide or mouse control peptide) of peptides three times per week. Animals were killed 23 days after the start of the peptide treatment.
The specific binding of the CD44v6 peptides to specific areas of the lungs in the rat system and of the liver in the human model raises the question whether these peptides might have an effect on already established metastases. In the experiments described in FIGS. 2 and 4 the peptides were applied early after injection of the tumor cells and repressed completely the establishment of metastases. In order to measure the effect of the CD44v6 peptide on already established metastases, other experimental settings were used. […] At the end of the experiments metastases could be detected in all animals treated with the control peptide (Table 3, FIG. 6B for the BSp73ASs6 cells, Table 3, FIG. 6C for L3.6pl cells) whereas animals treated with the species-specific CD44v6 peptides were free of metastasis. […]

For another experiment, the system named is APC/Min/+ mice. Put plainly: APC/Min/+ mouse model, tumors in the duodenum. It counts as in vivo. The protocol:
The effect of the v6 14mer was tested in the APC/Min/+ model model using 18 week old mice. The animals received an i.p. injection of 20 μg of v6 14mer (mouse 14mer) or control peptide (rat 14mer) three times per week for 6 weeks. Animals (three per group) were sacrificed at the end of the experiment and the duodenum was analyzed for the total number of tumors (FIG. 25).

The subject of another experiment is Met. Put plainly: HGF induced activation of Met and Erk in endothelial cells. It counts as cell-based, human. To be noted: HUVEC, HAOEC and HCMEC; added before induction with HGF. On the procedure: FIG. 12: CD44v6 is required for activation of Met and downstream signaling in several ECs. Different ECs (HUVEC, HAOEC and HCMEC) were serum starved and incubated with several reagents (aCD44v6, v6 14mer and the controls IgG and ctrl pep). The growth factor HGF was added and the cells were lysed. The proteins in the cell lysates were separated by SDS-PAGE and subjected to Western blot analysis. Activation of Met and of its downstream target Erk was detected by means of phospho-specific antibodies that detect phosphorylated forms of Met and Erk. In order to check equal loading of the different samples the membrane was incubated with stripping solution and reprobed with antibodies recognising all Met and Erk proteins. The numbers indicate the fold induction as calculated with the computer programme ImageJ.
When these ECs were treated with HGF, the receptor tyrosine kinase Met was phosphorylated and signaling to Erk—a downstream target of Met—was promoted (FIG. 12). The contribution of CD44v6 to Met signaling in these cells was analysed using different tools.

Another experiment has as its system BSp73ASs6 cells. Put plainly: Apoptosis in established lung metastases (cleaved Caspase-3, cleaved Caspase-8), BSp73ASs6 rat model. Type of experiment: in vivo. The conditions noted are these: cleaved caspase-8 staining. The protocol: 7 μm thick paraffin sections were deparaffinized and rehydrated. For P-Met staining antigen unmasking was achieved by boiling the slides in 1 mM EDTA pH 8.0 followed by incubation for 15 minutes at a sub-boiling temperature, for CD31 staining the sections were treated with Proteinase K (8 μg/ml) for 10 min at 37° C. For immunofluorescence staining of P-Met, unspecific binding was blocked with 5% goat serum (DAKO, Glostrup, Denmark) (diluted in 1×PBS/0.3% Triton X-100) for 60 minutes. In the case of immunohistochemistry, endogenous peroxidases were at first blocked with 3% H2O2 in PBS followed by incubation with biotin blocking system (Dako, Glostrup, Denmark) and then unspecific binding was inhibited by incubation with 5% FCS in PBS. The sections were incubated with the P-Met antibody (D26, dilution 1:50 in 1×PBS/1% BSA/0.3% Triton X-100), Met antibody (C-28, dilution 1:50), GFP antibody (sc-101525, dilution 1:50) or CD31 antibody (5 μg/ml) over night or VFF18 (5 μg/ml) o/n at 4° C. After washing in PBS the sections were incubated with Alexa Fluor R 546 goat anti-rabbit (in case of immunofluorescence P-Met and Met staining, dilution 1:500) or a biotinylated secondary antibody (for immunohistochemical stainings rabbit anti-rat antibody for VFF18 and CD31, goat anti-rabbit for P-Met, cleaved Caspase-3 and cleaved Caspase-8 and rabbit anti-mouse for GFP, dilution 1:500) for 45 minutes. For DAB (3,3′-diaminobenzidine) staining the sections were treated with a streptavidin-peroxidase conjugate (Dako, Glostrup, Denmark) and developed with DAB substrate system (3,3′-diaminobenzidine; Biozol, Eching, Germany). For immunofluorescence DAPI was used for nuclear staining.
One hypothesis for the disappearance of metastases is that the peptides induce apoptosis of CD44v6-expressing metastatic cells in the secondary organs. In order to test this hypothesis, the experiment described above using the BSp73ASs6 cells was repeated. The cells were injected subcutaneously in syngeneic rats and the tumor was allowed to develop for three weeks. After that time the animals were separated in two groups of 10 animals that were injected either with the specific rat CD44v6 peptide or with the control peptide (mouse) every second day. One day following each injection of the peptide, the lungs of one animal were removed and apoptosis was measured using an antibody that detects the cleaved form of Caspase 3. […] Twelve days after injection of the CD44v6 peptide, less apoptosis was observed. […] From these experiments, it is concluded that the CD44v6 peptide induces apoptosis of metastatic cells.

For “KEQWFGNRWHEGYR [human 14mer, human CD44v6 14mer peptide]”, the “presence of already established (liver) metastases after treatment” value in the experiment on L3.6pl cells was “eliminate already established metastases”. The “number of tumors in the duodenum” value in the experiment on APC/Min/+ mice (i.p. injection for 6 weeks (FIG. 25)) is “reduces the number of tumors in the duodenum”. Moreover, the “decrease according to the size of the tumor” value in the experiment on APC/Min/+ mice (mouse 14mer 20 μg i.p. three times per week for 6 weeks) is recorded as “more pronounced in case of small tumors (0-1 mm>1-2 mm>2-5 mm)”. Besides, in the experiment with APC/Min/+ mice (mouse 14mer 20 μg i.p. three times per week for 6 weeks, 18 week old mice, preliminary data), the “tumor size in the duodenum” value was “strong decrease of the tumor size in the duodenum”. In the experiment with APC/Min/+ mice (mouse 14mer 20 μg i.p. three times per week for 6 weeks, versus control peptide), the “tumor number for tumors bigger than 5 mm” value is “higher”. Moreover, the “activation of Met and of its downstream target Erk” value in the experiment on Met was “able to prevent activation of Met and of its downstream target Erk”. Besides, in the experiment with BSp73ASs6 cells, the “activation of caspase-8 in lung metastases” value is “A kinetic of activation of caspase-8 similar to the one obtained for caspase-3”.
